Measured values taken from PubChem BioAssay (NCI).
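Following 48 hours of exposure in 96-well plates, responses at five concentrations were used to interpolate endpoints linearly. TGI denotes the concentration required for complete inhibition of growth.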

How the values were obtained:
Assay in all cases: growth of human tumour cells (NCI), 48 h
SNB-19 CNS = tested on: SNB-19 CNS
SW-620 colon = tested on: SW-620 colon
U251 CNS = tested on: U251 CNS
A498 renal = tested on: A498 renal
SR leukemia = tested on: SR leukemia
UO-31 renal = tested on: UO-31 renal
EKVX NSCLC = tested on: EKVX NSCLC
UACC-257 melanoma = tested on: UACC-257 melanoma
SK-MEL-2 melanoma = tested on: SK-MEL-2 melanoma
SN12C renal = tested on: SN12C renal
OVCAR-5 ovarian = tested on: OVCAR-5 ovarian
NCI-H460 lung = tested on: NCI-H460 lung
SK-MEL-28 melanoma = tested on: SK-MEL-28 melanoma
NCI/ADR-RES ovarian = tested on: NCI/ADR-RES ovarian
BT-549 breast = tested on: BT-549 breast
HL-60(TB) leukemia = tested on: HL-60(TB) leukemia
MDA-MB-231 breast = tested on: MDA-MB-231 breast
MDA-MB-435 = tested on: MDA-MB-435
SF-268 CNS = tested on: SF-268 CNS
UACC-62 melanoma = tested on: UACC-62 melanoma

Row | Structure (SMILES) | TGI (SNB-19 CNS) [µM] | TGI (SW-620 colon) [µM] | TGI (U251 CNS) [µM] | TGI (A498 renal) [µM] | TGI (SR leukemia) [µM] | TGI (UO-31 renal) [µM] | TGI (EKVX NSCLC) [µM] | TGI (UACC-257 melanoma) [µM] | TGI (SK-MEL-2 melanoma) [µM] | TGI (SN12C renal) [µM] | TGI (OVCAR-5 ovarian) [µM] | TGI (NCI-H460 lung) [µM] | TGI (SK-MEL-28 melanoma) [µM] | TGI (NCI/ADR-RES ovarian) [µM] | TGI (BT-549 breast) [µM] | TGI (HL-60(TB) leukemia) [µM] | TGI (MDA-MB-231 breast) [µM] | TGI (MDA-MB-435) [µM] | TGI (SF-268 CNS) [µM] | TGI (UACC-62 melanoma) [µM]
1 | C=CCn1c(=O)ccn(COCCO)c1=O | > 100 | > 100 | > 100 | > 100 | > 100 | > 100 | > 100 | > 100 | > 100 | > 100 | > 100 | > 100 | > 100 | > 100 | > 100 | > 100 | > 100 | > 100 | > 100 | –
2 | COc1nc(C#CCC(C)O)nc(OC)n1 (stereo not given) | > 100 | 47.7 | 76.9 | 77.1 | > 100 | 37.8 | 39.3 | > 100 | 87.3 | 42.5 | 33.3 | > 100 | > 100 | 43.5 | 36 | 94.6 | 52 | 54.6 | 69.6 | 37.3
3 | O=S(=O)(O)c1cc2ccc1/C=C\c1ccc(cc1S(=O)(=O)O)N=Nc1ccc(c(S(=O)(=O)O)c1)/C=C\c1ccc(cc1S(=O)(=O)O)N=N2 | > 100 | > 100 | > 100 | > 100 | – | > 100 | > 100 | > 100 | > 100 | > 100 | > 100 | > 100 | > 100 | > 100 | – | > 100 | – | – | > 100 | > 100
